Active and inactive are the calls of the source. The calls are words filed in the database; no cut-off is given here. A value given as a limit tells only on which side of the number the result lay.

One data set has as its system NCI-H460. Briefly: Antiproliferative activity against human NCI-H460 cells assessed as inhibition of cell growth incubated for 72 hrs by MTT assay. Type of data set: functional, cell-based. The settings on record: NCI-H460, 72 h. For orientation: Formazan colour is commonly taken as a measure of viable cells.
The subject of another data set is MCF7. Briefly: Antiproliferative activity against human MCF7 cells assessed as inhibition of cell growth incubated for 72 hrs by MTT assay. The format is functional, cell-based. The settings on record: MCF7, 72 h.
The next data set relates to HCT-116. The experiment in a line: Antiproliferative activity against human HCT-116 cells assessed as inhibition of cell growth incubated for 72 hrs by MTT assay. Type of data set: functional, cell-based. The settings on record: HCT-116, 72 h.
A further data set concerns HEK293. The experiment in a line: Cytotoxicity against human HEK293 cells assessed as inhibition of cell growth incubated for 72 hrs by MTT assay. The format is cell-based. The settings on record: HEK293, 72 h.
Data set [1] in a line: Selectivity index, ratio of IC50 for human HEK293 cells to IC50 for human HCT116 cells. The format is toxicity. The settings on record: HEK293 cells versus HCT116 cells, read-out: Ratio IC50.
The subject of data set [2] is Quadruplex DNA. Briefly: Binding affinity to human Tel22 G quadruplex DNA assessed as change in melting temperature in sodium cacodylate buffer at pH 7 by UV/Vis spectrophotometric analysis. Type of data set: nucleic-acid assay.
For data set [3], the system named is Poly(dA-dU)oligonucleotide. Briefly: Binding affinity to polyA-polyU RNA (unknown origin) assessed as binding constant in sodium cacodylate buffer at pH 7 by fluorescence spectroscopy. Type of data set: nucleic-acid assay.
In data set [4] the test system is Poly(dA-dT)oligonucleotide. The experiment in a line: Binding affinity to poly(dAdT)2 DNA (unknown origin) assessed as change in melting temperature in sodium cacodylate buffer at pH 7 at compound:polynucleotide concentration ratio of 0.3 by UV/Vis spectrophotometric analysis. The format is nucleic-acid assay.
Data set [5] relates to Calf thymus DNA. The experiment in a line: Binding affinity to calf thymus DNA assessed as ratio of bound compound to polynucleotide phosphate in sodium cacodylate buffer at pH 7 by fluorescence spectroscopy based Scatchard analysis. The settings on record: Bos taurus.
Data set [6] deals with Poly(dA-dU)oligonucleotide. Briefly: Binding affinity to polyA-polyU RNA (unknown origin) assessed as change in melting temperature in sodium cacodylate buffer at pH 7 at compound:polynucleotide concentration ratio of 0.3 by UV/vis spectrophotometric analysis. Type of data set: nucleic-acid assay.
Data set [7] relates to Poly(dA-dT)oligonucleotide. The experiment in a line: Binding affinity to poly(dAdT)2 DNA (unknown origin) assessed as ratio of fluorescence intensity of compound-polynucleotide complex to fluorescence intensity of compound in sodium cacodylate buffer at pH 7 by fluorescence spectroscopy based Scatchard method. Type of data set: nucleic-acid assay.
The subject of data set [8] is Poly(dG-dC)oligonucleotide. The experiment in a line: Binding affinity to poly(dGdC)2 DNA (unknown origin) assessed as ratio of bound compound to polynucleotide phosphate in sodium cacodylate buffer at pH 7 by fluorescence spectroscopy based Scatchard method. Type of data set: nucleic-acid assay.
For data set [9], the system named is Poly(dG-dC)oligonucleotide. Briefly: Binding affinity to poly(dGdC)2 DNA (unknown origin) assessed as ratio of fluorescence intensity of compound-polynucleotide complex to fluorescence intensity of compound in sodium cacodylate buffer at pH 7 by fluorescence spectroscopy based Scatchard method. Type of data set: nucleic-acid assay.
Data set [10] relates to Quadruplex DNA. The experiment in a line: Binding affinity to human Tel22 G quadruplex DNA assessed as ratio of fluorescence intensity of compound-polynucleotide complex to fluorescence intensity of compound in sodium cacodylate buffer at pH 7 at binding stoichiometry ratio of 1:2 by fluorescence spectroscopy. Type of data set: nucleic-acid assay.
In data set [11] the test system is Calf thymus DNA. The experiment in a line: Binding affinity to calf thymus DNA assessed as binding constant in sodium cacodylate buffer at pH 7 by fluorescence spectroscopy. The settings on record: Bos taurus.
Data set [12] relates to Poly(dA-dT)oligonucleotide. The experiment in a line: Binding affinity to poly(dAdT)2 DNA (unknown origin) assessed as binding constant in sodium cacodylate buffer at pH 7 by fluorescence spectroscopy. The format is nucleic-acid assay.
Data set [13] deals with Poly(dA-dU)oligonucleotide. Briefly: Binding affinity to polyA-polyU RNA (unknown origin) in sodium cacodylate buffer at pH 7 by CD spectroscopy. Type of data set: nucleic-acid assay.
The subject of data set [14] is Quadruplex DNA. Briefly: Binding affinity to human Tel22 G quadruplex DNA assessed as ratio of fluorescence intensity of compound-polynucleotide complex to fluorescence intensity of compound in sodium cacodylate buffer at pH 7 at binding stoichiometry ratio of 1:1 by fluorescence spectroscopy. Type of data set: nucleic-acid assay.
Data set [15] has as its system Poly(dG-dC)oligonucleotide. Briefly: Binding affinity to poly(dGdC)2 DNA (unknown origin) in sodium cacodylate buffer at pH 7 by CD spectroscopy. The format is nucleic-acid assay.
Data set [16] deals with Poly(dA-dT)oligonucleotide. The experiment in a line: Binding affinity to poly(dAdT)2 DNA (unknown origin) in sodium cacodylate buffer at pH 7 by CD spectroscopy. The format is nucleic-acid assay.
Data set [17] concerns Poly(dA-dU)oligonucleotide. Briefly: Binding affinity to polyA-polyU RNA (unknown origin) assessed as ratio of fluorescence intensity of compound-polynucleotide complex to fluorescence intensity of compound in sodium cacodylate buffer at pH 7 by fluorescence spectroscopy based Scatchard method. The format is nucleic-acid assay.
Data set [18] has as its system Poly(dA-dT)oligonucleotide. Briefly: Binding affinity to poly(dAdT)2 DNA (unknown origin) assessed as ratio of bound compound to polynucleotide phosphate in sodium cacodylate buffer at pH 7 by fluorescence spectroscopy based Scatchard method. The format is nucleic-acid assay.
The test system of data set [19] is Calf thymus DNA. The experiment in a line: Binding affinity to calf thymus DNA assessed as change in melting temperature in sodium cacodylate buffer at pH 7 at compound:polynucleotide concentration ratio of 0.3 by UV/Vis spectrophotometric analysis. Type of data set: nucleic-acid assay. The settings on record: Bos taurus.
The test system of data set [20] is Quadruplex DNA. The experiment in a line: Binding affinity to human Tel22 G quadruplex DNA assessed as binding constant in sodium cacodylate buffer at pH 7 at binding stoichiometry ratio of 1:1 by fluorescence spectroscopy. Type of data set: nucleic-acid assay.
Data set [21] concerns Calf thymus DNA. Briefly: Binding affinity to calf thymus DNA assessed as ratio of fluorescence intensity of compound-polynucleotide complex to fluorescence intensity of compound in sodium cacodylate buffer at pH 7 by fluorescence spectroscopy based Scatchard method. The settings on record: Bos taurus.
Data set [22] has as its system Poly(dA-dU)oligonucleotide. Briefly: Binding affinity to polyA-polyU RNA (unknown origin) assessed as ratio of bound compound to polynucleotide phosphate in sodium cacodylate buffer at pH 7 by fluorescence spectroscopy based Scatchard method. Type of data set: nucleic-acid assay.
Data set [23] has as its system Quadruplex DNA. Briefly: Binding affinity to human Tel22 G quadruplex DNA assessed as binding constant in sodium cacodylate buffer at pH 7 at binding stoichiometry ratio of 1:2 by fluorescence spectroscopy. Type of data set: nucleic-acid assay.
For data set [24], the system named is Poly(dG-dC)oligonucleotide. Briefly: Binding affinity to poly(dGdC)2 DNA (unknown origin) assessed as binding constant in sodium cacodylate buffer at pH 7 by fluorescence spectroscopy. The format is nucleic-acid assay.
Data set [25] has as its system Calf thymus DNA. Briefly: Binding affinity to calf thymus DNA in sodium cacodylate buffer at pH 7 by CD spectroscopy. The settings on record: Bos taurus.

The term IC50 denotes the point on the concentration scale where inhibition reaches its midpoint. On to `N#Cc1c(Cl)c2ccccc2n2c1nc1ncccc12`, for which the 50% inhibitory concentration (IC50) with NCI-H460 came out at 4600 nM; with MCF7, 2000 nM; with HCT-116, 100 nM; in the data set with HEK293 it was 1600 nM. Also, the selectivity ratio in data set [1] stood at 16.

A word on the ΔTm: it is the change in melting temperature against a reference sample. Take `N#Cc1c(N2CCNCC2)c2ccc(N3CCNCC3)cc2n2c1nc1ncccc12`: the ΔTm in the data set on Quadruplex DNA [2] was determined as 2.5 °C; in [4], 11.1 °C; in data set [6], 13.5 °C; in the data set with Calf thymus DNA [19] it was 6.6 °C. Also, the log Ks is 6.5 in data set [3]; 6.4 with Calf thymus DNA [11]; 6.8 in data set [12]; 5.33 with Quadruplex DNA [20]; 7.16 with Quadruplex DNA [23]; 6.6 in data set [24]. Also, the IC50 in the data set with NCI-H460 was at least 100000 nM; in the data set with MCF7 it was at least 100000 nM; in the data set with HCT-116 it was at least 100000 nM; in the data set on HEK293 it was above 100000 nM. For the same compound, the Ratio in the data set on Calf thymus DNA [5] is 0.1; in [7], 1.3; in [8] it was 0.2; in [9] it was 0; in the data set with Quadruplex DNA [10], 0.89; in the data set on Quadruplex DNA [14], 0.62. The Ratio in data set [17] was 1.8; in [18], below 0.1; in the data set with Calf thymus DNA [21], 0; in data set [22] it was 0.1. Further, the result in data set [13], in [15] and in [16] was Active.

In the case of `N#Cc1c(N2CCNCC2)c2ccc(N3CCNCC3)cc2n2c1nc1cccnc12`, the log Ks in data set [3] was determined as 6.6; with Calf thymus DNA [11] it was 6.3; in [12], 6.8; in the data set on Quadruplex DNA [20], 5.04; with Quadruplex DNA [23], 6.85; in [24], 6.8. The figures for the ΔTm (in [4]; in data set [6]; in the data set with Calf thymus DNA [19]) were 14.3 °C, 15 °C and 7.5 °C, respectively. Moreover, the half-inhibitory concentration (IC50) in the data set on NCI-H460 was 700 nM; with MCF7, 400 nM; with HCT-116, 400 nM; in the data set with HEK293 it was 200 nM. The Ratio is 0.3 with Calf thymus DNA [5]; 1.5 in data set [7]; 0.3 in [8]; below 0.1 in data set [9]; 0.81 with Quadruplex DNA [10]; 0.77 with Quadruplex DNA [14]. In addition, the Ratio in [17] came out at 2; in [18] it was 0.2; with Calf thymus DNA [21] it was 0.1; in data set [22], 0.1. Moreover, the outcome in data set [13], in [15] and in data set [16] was Active.

In the case of `CC(C)CNc1c(C#N)c2nc3cccnc3n2c2ccccc12`, the ΔTm in the data set with Quadruplex DNA [2] came out at 1.8 °C; in [4], 0.8 °C; in [6], 0 °C; in the data set on Calf thymus DNA [19], 0.8 °C. Besides, the log Ks in data set [3] was 5.3; in [12], 4.6; in the data set on Quadruplex DNA [20] it was 4.51. In addition, the IC50 in the data set with NCI-H460 is at least 100000 nM; in the data set on MCF7, at least 100000 nM; in the data set with HCT-116, at least 100000 nM; with HEK293 it was above 100000 nM. In addition, the Ratio is 10.4 in [7]; 5.52 in the data set on Quadruplex DNA [14]; 2.5 in [17]; 0.1 in [18]; below 0.1 in data set [22]. Besides, in data set [15], the result was inactive. In addition, the outcome (in data set [16]; in the data set with Calf thymus DNA [25]) was Active.

For the origin of these results see ChEMBL document CHEMBL4814006, “Novel amino substituted tetracyclic imidazo[4,5-b]pyridine derivatives: Design, synthesis, antiproliferative activity and DNA/RNA binding study” (Eur J Med Chem, 2021).
